Source: PubChem BioAssay AID1963832 (Molecular Pharmacology Branch, DTP, NCI, 2024)

Test system: 885724-159-R-J1-PDC complex spheroid viability
Experiment: Anticancer human tumor 885724-159-R-J1-PDC patient-derived pancreatic adenocarcinoma cell line growth inhibition [POLQ]
Conditions: for IC50: curve of first compound; for viability, T/C: stronger effect = lower value
How it was run: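 PDC + HUVEC + MSC complex spheroids; POLQ inhibitors ± partner drugs; top conc. at/near clinical Cmax, else 10 microM (SN-38 1 microM), half-log dilutions; 37 degrees C, 5% CO2.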

[1] = second compound 0.0316 µM, first compound 0.0316 µM
[2] = second compound 0.0316 µM, first compound 0.1 µM
[3] = second compound 0.0316 µM, first compound 0.316 µM
[4] = second compound 0.0316 µM, first compound 1 µM
[5] = second compound 0.0316 µM, first compound 3.16 µM
[6] = second compound 0.0316 µM, first compound 10 µM
[7] = second compound 0.1 µM, first compound 0.0316 µM
[8] = second compound 0.1 µM, first compound 0.1 µM
[9] = second compound 0.1 µM, first compound 0.316 µM
[10] = second compound 0.1 µM, first compound 1 µM
[11] = second compound 0.1 µM, first compound 3.16 µM
[12] = second compound 0.1 µM, first compound 10 µM
[13] = second compound 0.316 µM, first compound 0.0316 µM
[14] = second compound 0.316 µM, first compound 0.1 µM
[15] = second compound 0.316 µM, first compound 0.316 µM
[16] = second compound 0.316 µM, first compound 1 µM
[17] = second compound 0.316 µM, first compound 3.16 µM
[18] = second compound 0.316 µM, first compound 10 µM
[19] = second compound 1 µM, first compound 0.0316 µM
[20] = second compound 1 µM, first compound 0.1 µM
[21] = second compound 1 µM, first compound 0.316 µM
[22] = second compound 1 µM, first compound 1 µM
[23] = second compound 1 µM, first compound 3.16 µM
[24] = second compound 1 µM, first compound 10 µM
[25] = second compound 3.16 µM, first compound 0.0316 µM
[26] = second compound 3.16 µM, first compound 0.1 µM
[27] = second compound 3.16 µM, first compound 0.316 µM
[28] = second compound 3.16 µM, first compound 1 µM
[29] = second compound 3.16 µM, first compound 3.16 µM
[30] = second compound 3.16 µM, first compound 10 µM
[31] = second compound 10 µM, first compound 0.0316 µM
[32] = second compound 10 µM, first compound 0.1 µM
[33] = second compound 10 µM, first compound 0.316 µM
[34] = second compound 10 µM, first compound 1 µM
[35] = second compound 10 µM, first compound 3.16 µM
[36] = second compound 10 µM, first compound 10 µM
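Also: spheroids exposed to compounds for 7 days.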

For `C#Cc1c(F)ccc2cc(O)cc(-c3ncc4c(N5CC6CCC(C5)N6)nc(OCC56CCCN5CC(F)C6)nc4c3F)c12` (stereo not drawn) + Cc1cccc(N(C)C(=O)C2C(O)CCN2c2nc(C)cc(C(F)(F)F)c2C#N)c1, the IC50 (second compound 0.0316 µM) was 2.45 µM, the IC50 (second compound 0.1 µM) was 2.33 µM and the IC50 (second compound 0.316 µM) was 2.14 µM. The IC50 (second compound 1 µM) was 2.17 µM, the IC50 (second compound 3.16 µM) was 1.93 µM and the IC50 (second compound 10 µM) was 1.47 µM. It also gave a viability, T/C [1] of 98.6%, a viability, T/C [2] of 92.6% and a viability, T/C [3] of 78.5%. The viability, T/C [4] was 72%, the viability, T/C [5] was 42.4% and the viability, T/C [6] was 19.9%. It also gave a viability, T/C [7] of 101%, a viability, T/C [8] of 93.1% and a viability, T/C [9] of 83.9%. The viability, T/C [10] was 68.8%, the viability, T/C [11] was 42.7% and the viability, T/C [12] was 18.4%. The viability, T/C [13] was 95.5%, the viability, T/C [14] was 87.5% and the viability, T/C [15] was 95.4%. The viability, T/C [16] was 70%, the viability, T/C [17] was 39.7% and the viability, T/C [18] was 20.6%. For the same compound, the viability, T/C [19] was 93.3%, the viability, T/C [20] was 101% and the viability, T/C [21] was 79.7%. For the same compound, the viability, T/C [22] was 64.5%, the viability, T/C [23] was 44.2% and the viability, T/C [24] was 21.2%. For the same compound, the viability, T/C [25] was 92.8%, the viability, T/C [26] was 94.2% and the viability, T/C [27] was 80.4%. For the same compound, the viability, T/C [28] was 62.8%, the viability, T/C [29] was 40.7% and the viability, T/C [30] was 19%. The viability, T/C [31] was 93.8%, the viability, T/C [32] was 81% and the viability, T/C [33] was 80.3%. It also gave a viability, T/C [34] of 55.3%, a viability, T/C [35] of 36.2% and a viability, T/C [36] of 19.9%.

With `CC(C)n1c(=O)n(C)c2cnc3cc(F)c(-c4ccc(OCCCN5CCCCC5)nc4)cc3c21` + Cc1cccc(N(C)C(=O)C2C(O)CCN2c2nc(C)cc(C(F)(F)F)c2C#N)c1 the IC50 (second compound 0.0316 µM) was over 10 µM, the IC50 (second compound 0.1 µM) was over 10 µM and the IC50 (second compound 0.316 µM) was over 10 µM. The IC50 (second compound 1 µM) was over 10 µM, the IC50 (second compound 3.16 µM) was over 10 µM and the IC50 (second compound 10 µM) was over 10 µM. It also gave a viability, T/C [1] of 104%, a viability, T/C [2] of 104% and a viability, T/C [3] of 99.9%. For the same compound, the viability, T/C [4] was 97.8%, the viability, T/C [5] was 93.9% and the viability, T/C [6] was 68.8%. It also gave a viability, T/C [7] of 108%, a viability, T/C [8] of 95.8% and a viability, T/C [9] of 109%. The viability, T/C [10] was 91.2%, the viability, T/C [11] was 96.8% and the viability, T/C [12] was 72.2%. For the same compound, the viability, T/C [13] was 109%, the viability, T/C [14] was 102% and the viability, T/C [15] was 102%. For the same compound, the viability, T/C [16] was 98.8%, the viability, T/C [17] was 99.3% and the viability, T/C [18] was 66.6%. For the same compound, the viability, T/C [19] was 104%, the viability, T/C [20] was 100% and the viability, T/C [21] was 104%. It also gave a viability, T/C [22] of 116%, a viability, T/C [23] of 87.7% and a viability, T/C [24] of 60.2%. It also gave a viability, T/C [25] of 106%, a viability, T/C [26] of 112% and a viability, T/C [27] of 107%. For the same compound, the viability, T/C [28] was 102%, the viability, T/C [29] was 86.2% and the viability, T/C [30] was 61.3%. It also gave a viability, T/C [31] of 106%, a viability, T/C [32] of 95.4% and a viability, T/C [33] of 111%. For the same compound, the viability, T/C [34] was 101%, the viability, T/C [35] was 88.9% and the viability, T/C [36] was 60.7%.

In the case of `CC1COCCN1c1cc(C2(O)CC3CCC(C2)O3)c2cnn(-c3ccn[nH]3)c2n1` (stereo not drawn) + Cc1cccc(N(C)C(=O)C2C(O)CCN2c2nc(C)cc(C(F)(F)F)c2C#N)c1, the IC50 (second compound 0.0316 µM) is reported as 0.142 µM, the IC50 (second compound 0.1 µM) is reported as 0.243 µM and the IC50 (second compound 0.316 µM) is reported as 0.151 µM. The IC50 (second compound 1 µM) was 0.188 µM, the IC50 (second compound 3.16 µM) was 0.302 µM and the IC50 (second compound 10 µM) was 0.225 µM. For the same compound, the viability, T/C [1] was 74.4%, the viability, T/C [2] was 51.4% and the viability, T/C [3] was 41.6%. It also gave a viability, T/C [4] of 39.6%, a viability, T/C [5] of 35.4% and a viability, T/C [6] of 28.5%. It also gave a viability, T/C [7] of 72%, a viability, T/C [8] of 58.1% and a viability, T/C [9] of 47.6%. It also gave a viability, T/C [10] of 39.3%, a viability, T/C [11] of 35.4% and a viability, T/C [12] of 30.8%. It also gave a viability, T/C [13] of 70.4%, a viability, T/C [14] of 46.9% and a viability, T/C [15] of 47.2%. For the same compound, the viability, T/C [16] was 41%, the viability, T/C [17] was 35.3% and the viability, T/C [18] was 28.8%. It also gave a viability, T/C [19] of 77.3%, a viability, T/C [20] of 56.7% and a viability, T/C [21] of 41.4%. The viability, T/C [22] was 40%, the viability, T/C [23] was 33.2% and the viability, T/C [24] was 27.1%. The viability, T/C [25] was 68.8%, the viability, T/C [26] was 55.8% and the viability, T/C [27] was 49.4%. For the same compound, the viability, T/C [28] was 43.2%, the viability, T/C [29] was 36.5% and the viability, T/C [30] was 29.2%. The viability, T/C [31] was 70.6%, the viability, T/C [32] was 54.2% and the viability, T/C [33] was 48.8%. The viability, T/C [34] was 38.1%, the viability, T/C [35] was 36% and the viability, T/C [36] was 29%.

For `CCc1cc2c(N3CCc4c(cc(Cn5ccnc5)cc4-c4cn(C)nc4C(F)(F)F)C3=O)cc(C)nc2c(OC)n1` + Cc1cccc(N(C)C(=O)C2C(O)CCN2c2nc(C)cc(C(F)(F)F)c2C#N)c1, the IC50 (second compound 0.0316 µM) was over 10 µM, the IC50 (second compound 0.1 µM) was over 10 µM and the IC50 (second compound 0.316 µM) was over 10 µM. It also gave an IC50 (second compound 1 µM) of over 10 µM, an IC50 (second compound 3.16 µM) of over 10 µM and an IC50 (second compound 10 µM) of over 10 µM. It also gave a viability, T/C [1] of 86.5%, a viability, T/C [2] of 82% and a viability, T/C [3] of 84.8%. For the same compound, the viability, T/C [4] was 75.2%, the viability, T/C [5] was 83.1% and the viability, T/C [6] was 70.1%. For the same compound, the viability, T/C [7] was 85.9%, the viability, T/C [8] was 86.2% and the viability, T/C [9] was 84.6%. For the same compound, the viability, T/C [10] was 81.7%, the viability, T/C [11] was 78.5% and the viability, T/C [12] was 68.1%. It also gave a viability, T/C [13] of 89.1%, a viability, T/C [14] of 83.5% and a viability, T/C [15] of 84.3%. The viability, T/C [16] was 83.9%, the viability, T/C [17] was 77.4% and the viability, T/C [18] was 68.7%. It also gave a viability, T/C [19] of 93.5%, a viability, T/C [20] of 92.1% and a viability, T/C [21] of 86%. It also gave a viability, T/C [22] of 79.2%, a viability, T/C [23] of 76.1% and a viability, T/C [24] of 68%. The viability, T/C [25] was 93.2%, the viability, T/C [26] was 84.9% and the viability, T/C [27] was 88.2%. It also gave a viability, T/C [28] of 84.5%, a viability, T/C [29] of 72.9% and a viability, T/C [30] of 75.4%. It also gave a viability, T/C [31] of 83.9%, a viability, T/C [32] of 91% and a viability, T/C [33] of 87.5%. The viability, T/C [34] was 81.6%, the viability, T/C [35] was 75.8% and the viability, T/C [36] was 71%.
